Where “and” joins values, the source holds several entries; their conditions need not be identical. Equal values may be shown once.
Key:
COX-2 = biological target: T1, COX-2 (Homo sapiens, UniProt P35354); assay: COX-2 inhibition, enzyme immunoassay (EIA); assay type: biochemical; details: ratio of COX-1 IC50 to COX-2 IC50
T1 sequence (P35354 18-604): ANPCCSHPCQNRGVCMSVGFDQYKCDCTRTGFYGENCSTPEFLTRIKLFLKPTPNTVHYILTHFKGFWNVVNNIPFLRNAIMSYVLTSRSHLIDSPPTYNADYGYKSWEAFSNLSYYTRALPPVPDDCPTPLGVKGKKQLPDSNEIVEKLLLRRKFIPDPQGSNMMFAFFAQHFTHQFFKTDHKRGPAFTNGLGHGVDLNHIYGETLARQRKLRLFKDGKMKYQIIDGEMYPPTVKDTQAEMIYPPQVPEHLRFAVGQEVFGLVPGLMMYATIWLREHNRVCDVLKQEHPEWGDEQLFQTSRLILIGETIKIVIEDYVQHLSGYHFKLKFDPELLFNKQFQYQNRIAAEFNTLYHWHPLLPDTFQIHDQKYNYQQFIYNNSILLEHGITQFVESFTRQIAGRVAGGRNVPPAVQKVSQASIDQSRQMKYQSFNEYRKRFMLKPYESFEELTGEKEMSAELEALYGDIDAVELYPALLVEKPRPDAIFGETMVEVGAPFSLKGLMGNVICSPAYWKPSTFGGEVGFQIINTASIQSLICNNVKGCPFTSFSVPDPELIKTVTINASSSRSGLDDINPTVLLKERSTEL
Description: Exemplary conjugates as described herein were tested in vitro for inhibition of COX-1 and COX-2, using an enzyme immunoassay (EIA), as follows.
Cyclooxygenase catalyzes the first step in the biosynthesis of arachidonic acid (AA) to PGH2. PGF2α, produced from PGH2 by reduction with stannous chloride, is measured by enzyme immunoassay (ACETM competitive EIA).
Stock solutions of test compounds were dissolved in a minimum volume of DMSO. Briefly, to a series of supplied reaction buffer solutions (960 μl, 0.1M Tris-HCl pH 8.0 containing 5 mM EDTA and 2 mM phenol) with either COX-1 or COX-2 (10 μl) enzyme in the presence of heme (10 μl) were added 10 μl of various concentrations of test drug solutions (0.01, 0.1, 1, 10, 50, and 100 μM in a final volume of 1 ml). These solutions were incubated for a period of 5 minutes at 37° C. after which 10 μL of AA (100 μM) solution were added and the COX reaction was stopped by the addition of 50 μl of 1M HCl after 2 minutes. PGF2α, produced from PGH2 by reduction with stannous chloride was measured by enzyme immunoassay.
This assay is based on the competition between PGs and a PG-acetylcholinesterase conjugate (PG tracer) for a limited amount of PG antiserum. The amount of PG tracer that is able to bind to the PG antiserum is inversely proportional to the concentration of PGs in the wells since the concentration of PG tracer is held constant while the concentration of PGs varies. The concentration of the test compound causing 50% inhibition (IC50, μM) was calculated from the concentration-inhibition response curve (duplicate determinations).

hERG channels = biological target: T2, hERG channels (Homo sapiens, UniProt Q12809); assay: hERG channels expressed in Xenopus oocytes, two-electrode voltage clamp; assay type: cell-based; design: initial current / final current / remaining current / avarage (remaining current): unit not given here; details: for final current: at −130 mV; for final current / remaining current / initial current: individual oocytes; for avarage (remaining current): 5 oocytes; for initial current: at −130 mV after pre-pulse to +40 mV
T2 construct: expressed in transfected cells; host or cells: Xenopus laevis oocytes injected with hERG cRNA (pSP64 vector, SP6 promoter)
T2 sequence (Q12809 whole entry): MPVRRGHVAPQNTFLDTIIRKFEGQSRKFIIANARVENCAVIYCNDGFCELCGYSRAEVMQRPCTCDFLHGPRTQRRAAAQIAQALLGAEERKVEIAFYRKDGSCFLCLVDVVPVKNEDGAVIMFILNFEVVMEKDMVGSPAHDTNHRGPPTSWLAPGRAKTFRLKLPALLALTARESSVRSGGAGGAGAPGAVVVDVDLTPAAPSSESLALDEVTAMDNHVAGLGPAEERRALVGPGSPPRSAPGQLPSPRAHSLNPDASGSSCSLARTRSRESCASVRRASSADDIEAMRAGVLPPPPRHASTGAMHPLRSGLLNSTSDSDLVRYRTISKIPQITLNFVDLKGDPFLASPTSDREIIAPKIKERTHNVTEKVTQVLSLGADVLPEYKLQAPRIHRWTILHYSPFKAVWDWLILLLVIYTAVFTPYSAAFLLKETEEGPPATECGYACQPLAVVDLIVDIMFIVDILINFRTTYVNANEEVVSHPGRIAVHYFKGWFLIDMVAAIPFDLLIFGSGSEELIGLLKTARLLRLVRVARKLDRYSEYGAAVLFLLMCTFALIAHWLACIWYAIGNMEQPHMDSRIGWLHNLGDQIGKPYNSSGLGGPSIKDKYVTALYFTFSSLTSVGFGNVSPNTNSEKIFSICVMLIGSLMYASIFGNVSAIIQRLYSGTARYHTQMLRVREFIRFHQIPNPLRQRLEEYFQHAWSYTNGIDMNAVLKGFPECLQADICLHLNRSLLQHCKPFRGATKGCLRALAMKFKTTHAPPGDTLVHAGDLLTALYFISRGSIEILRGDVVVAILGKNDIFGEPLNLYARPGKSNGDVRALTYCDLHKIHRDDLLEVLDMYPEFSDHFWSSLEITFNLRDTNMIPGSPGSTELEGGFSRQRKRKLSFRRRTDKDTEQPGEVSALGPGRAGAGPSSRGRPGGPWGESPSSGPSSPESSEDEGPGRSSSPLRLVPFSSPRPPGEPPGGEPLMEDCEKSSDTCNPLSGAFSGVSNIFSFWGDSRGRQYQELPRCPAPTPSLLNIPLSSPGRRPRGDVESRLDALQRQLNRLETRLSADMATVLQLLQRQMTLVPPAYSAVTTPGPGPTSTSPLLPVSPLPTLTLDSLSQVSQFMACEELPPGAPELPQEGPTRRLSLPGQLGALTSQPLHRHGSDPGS
Description: The sensitivity of hERG channels to two compounds, MWL001 also termed in the application as MW001 or MWL-001 and MWL002 also termed MW002 or MWL-002, was tested using the Xenopus oocyte expression system and the two-electrode voltage clamp technique. Activity of the compounds was tested at a concentration of 15 μM both from the external and from the internal sides of the membrane.
Clones: hERG gene (gi|26051269) was cloned within pSP64 expression vector (Promega) downstream to a SP6 RNA polymerase promoter. cRNA was prepared following digestion with EcoR I.
Electrophysiology: Xenopus laevis oocytes were isolated, defolliculated and maintained at 17° C. in ND-91 solution (in mM): 91 NaCl, 2 KCl, 1.8 CaCl2, 1 MgCl2, and 5 HEPES, pH 7.5, supplemented with 100 U/ml penicillin, 100 μg/ml streptomycin and 50 μg/ml gentamycin. Oocytes were injected with 20 or 40 nl, containing 7-14 ng of hERG cRNA. Whole-cell currents were measured 2-3 days after injection by the two-electrode voltage clamp technique (TEVC), using a GeneClamp 500B amplifier (Axon Instruments). Data were filtered at 2 kHz and sampled at 5 kHz with Clampex 9.0 software (Axon Instruments). The pipette was filled with 3M KCl and the bath solution contained (in mM): 4 KCl, 96 NaCl, 1 MgCl2, 0.3 CaCl2, 5 HEPES, pH 7.4. For external application of the compounds, stock solutions of either MWL001 or MWL002 were dissolved in the bath solution to a final concentration of 15 μM. During the experiments, bath solution exchange rate was about 2 ml/minutes. At this rate, more than 95% of the bath solution is replaced within 30 seconds. For internal blockade measurements, oocytes were injected with 46 nl of diluted (0.274 mM) compound solutions to achieve a final concentration within the oocyte of 15 μM.
Internal application: Compounds were injected into the oocyte to achieve a final concentration of 15 μM. Injection was made during current measurements and results were collected before and for 5 minutes after the injection. Current levels were determined in 4 seconds intervals at −130 mV, following a pre-pulse to +40 mV (see, Table 4 and FIG. 3).
External application: MWL compounds were applied at 15 μM concentration in the bath solution and current levels were determined in 4 seconds intervals at −130 mV, following a pre-pulse to +40 mV, for 15 minutes (see, Table 4). In addition, measurements were made to determine channel behavior throughout the entire physiological voltage range.
Table 4 presents the data obtained for the effect of MWL compounds on expressed hERG channels in individual oocytes which were either incubated (external) or injected (internal) with MWL compounds. Currents were monitored for 15 or 5 minutes, respectively.

[1] = external application 15 μM in bath, monitored 15 minutes
[2] = external application 15 μM, 15 minutes
[3] = external application, before exposure
[4] = internal application (injected) 15 μM, 5 minutes
[5] = internal application (injected) 15 μM, monitored 5 minutes
[6] = internal application, before injection

**Q.** For `CCC=CCC=CCC=CCC=CCC=CCC=CCCC(=O)N1CC(O)CC1C(=O)O` (stereo not shown) [MWL001], which “Ratio (COX ½)” value (COX-2) is on record?
**A.** 464.11

**Q.** What about the final current (hERG channels; [1]) of the same molecule?
**A.** −12.8 and −15.5 and −15.8 and −10.8 and −26.0

**Q.** What about the “avarage (remaining current)” value (hERG channels; [2]) of the same molecule?
**A.** 95.7

**Q.** And the remaining current (hERG channels; [2])?
**A.** 100.8 and 91.2 and 98.1 and 100.0 and 88.6

**Q.** And the initial current (hERG channels; [3])?
**A.** −12.7 and −17.0 and −16.1 and −10.8 and −29.3

**Q.** What about the “avarage (remaining current)” value (hERG channels; [4]) of the same molecule?
**A.** 101.6

**Q.** And the remaining current (hERG channels; [4])?
**A.** 95.6 and 101.8 and 112.3 and 100.0 and 98.4

**Q.** What about the final current (hERG channels; [5]) of the same molecule?
**A.** −6.5 and −11.1 and −15.5 and −9.5 and −18.5

**Q.** What about the initial current (hERG channels; [6]) of the same molecule?
**A.** −6.8 and −10.9 and −13.8 and −9.5 and −18.8

**Q.** How did the “Ratio (COX ½)” value (COX-2) turn out when `CC/C=C\C/C=C\C/C=C\C/C=C\C/C=C\C/C=C\CCC(=O)NCCS(=O)(=O)O` [MWL002, N-docosa-4,7,10,13,16,19-hexaenoyl-taurine] was run?
**A.** 27.86

**Q.** What about the “effect on hERG channel currents” value (hERG channels; 15 μM, internal and external exposure) of the same molecule?
**A.** no sensitivity

**Q.** And the final current (hERG channels; [1])?
**A.** −7.1 and −5.0 and −7.2 and −18.0 and −9.0

**Q.** What about the “avarage (remaining current)” value (hERG channels; [2]) of the same molecule?
**A.** 108.2

**Q.** What about the remaining current (hERG channels; [2]) of the same molecule?
**A.** 91.6 and 109.9 and 120.0 and 102.9 and 116.9

**Q.** And the initial current (hERG channels; [3])?
**A.** −7.8 and −4.6 and −6.0 and −17.5 and −7.7

**Q.** And the “avarage (remaining current)” value (hERG channels; [4])?
**A.** 106.9

**Q.** What about the remaining current (hERG channels; [4]) of the same molecule?
**A.** 109.6 and 103.2 and 101.8 and 107.5 and 112.7

**Q.** What about the final current (hERG channels; [5]) of the same molecule?
**A.** −13.7 and −6.5 and −11.5 and −7.2 and −8.0

**Q.** What about the initial current (hERG channels; [6]) of the same molecule?
**A.** −12.5 and −6.3 and −11.3 and −6.7 and −7.1

— US20130158070A1, “CONJUGATES OF POLYUNSATURATED FATTY ACIDS AND AMINE-CONTAINING COMPOUNDS AND USES THEREOF” (priority 2010, published 2013)
